By IC50 is commonly meant the concentration that inhibits the measured activity by half. The kinetic solubility is the concentration staying in solution when a stock, usually in DMSO, is diluted into the medium. The Papp A→B is the apparent permeability from the apical to the basolateral side of a cell layer. In general, half-life refers to the time needed for the level to fall by half in the phase considered. Read a low half-life as fast loss. As a reminder, the chromatographic logD is a lipophilicity value derived from retention on a column. By amount remaining is commonly meant what is left of the initial amount, in per cent. Lower therefore signals more turnover.

Each structure is given as a SMILES string. In brackets after ≈: the same amount, converted by molar mass. Several values for one entry are separate records, joined by “and”; a condition that tells them apart may be missing. Equal entries are not always repeated.

For data set [1], the target named is T1, MDR1 (ABCB1) (Homo sapiens, UniProt P08183). The data set can be described thus: DNDI: % of compound recovered from apical to basolateral permeability assay in MDCK cells transfected with human MDR1 after 60 mins at a concentration of 3uM in the presence of GF120918. To be noted: dog, MDCK-MDR1, with GF120918 (concentration not stated). Format: ADME, cell-based, Canis lupus familiaris.
T1 sequence (P08183 whole entry): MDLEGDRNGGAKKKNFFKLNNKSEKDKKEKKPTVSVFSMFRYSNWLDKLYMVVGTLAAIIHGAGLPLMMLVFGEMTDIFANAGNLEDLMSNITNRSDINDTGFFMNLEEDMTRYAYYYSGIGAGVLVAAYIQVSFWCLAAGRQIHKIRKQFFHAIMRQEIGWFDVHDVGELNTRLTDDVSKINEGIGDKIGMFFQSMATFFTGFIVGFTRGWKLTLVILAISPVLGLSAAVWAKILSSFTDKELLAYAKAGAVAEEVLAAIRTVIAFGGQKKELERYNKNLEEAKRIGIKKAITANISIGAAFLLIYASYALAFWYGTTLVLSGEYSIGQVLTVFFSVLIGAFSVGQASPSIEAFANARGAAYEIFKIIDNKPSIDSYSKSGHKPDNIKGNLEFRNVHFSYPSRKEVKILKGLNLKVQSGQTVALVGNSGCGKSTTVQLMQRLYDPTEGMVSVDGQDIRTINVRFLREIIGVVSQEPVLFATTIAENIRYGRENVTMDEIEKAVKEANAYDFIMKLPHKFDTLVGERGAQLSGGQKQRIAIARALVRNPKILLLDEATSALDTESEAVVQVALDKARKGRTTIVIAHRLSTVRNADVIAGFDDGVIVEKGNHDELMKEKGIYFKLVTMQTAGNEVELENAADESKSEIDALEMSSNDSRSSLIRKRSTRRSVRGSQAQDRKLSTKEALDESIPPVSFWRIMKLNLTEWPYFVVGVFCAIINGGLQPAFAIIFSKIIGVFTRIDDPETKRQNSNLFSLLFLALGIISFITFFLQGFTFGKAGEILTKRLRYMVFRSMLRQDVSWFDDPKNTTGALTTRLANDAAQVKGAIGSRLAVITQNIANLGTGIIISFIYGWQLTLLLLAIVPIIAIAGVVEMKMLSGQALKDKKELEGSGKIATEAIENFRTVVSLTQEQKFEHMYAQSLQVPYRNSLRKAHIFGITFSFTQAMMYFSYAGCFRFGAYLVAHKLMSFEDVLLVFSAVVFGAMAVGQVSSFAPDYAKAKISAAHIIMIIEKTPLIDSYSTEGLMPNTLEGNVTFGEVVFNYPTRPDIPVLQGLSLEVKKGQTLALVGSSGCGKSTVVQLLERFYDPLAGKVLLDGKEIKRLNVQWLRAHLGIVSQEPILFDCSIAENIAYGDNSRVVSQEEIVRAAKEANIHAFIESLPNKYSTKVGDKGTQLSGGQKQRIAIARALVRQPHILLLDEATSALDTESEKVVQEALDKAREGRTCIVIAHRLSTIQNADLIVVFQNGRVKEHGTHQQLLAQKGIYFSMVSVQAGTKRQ

Data set [2] in a line: DNDI: Cytotoxicity against L929 mouse fibroblasts, 72 hour. To be noted: mouse, L929 mouse fibroblasts. Format: toxicity, cell-based.
Data set [3] can be described thus: DNDI: Solubility in phosphate buffered saline at pH7.4 measured by nephelometry at room temperature (NEPH-RT). Format: physicochemical. To be noted: pH 7.4.
In data set [4] the target is T1, MDR1 (ABCB1). The data set can be described thus: DNDI: % of compound recovered from apical to basolateral permeability assay in MDCK cells transfected with human MDR1 after 60 mins at a concentration of 3uM. Format: ADME, cell-based, Canis lupus familiaris. To be noted: dog.
Data set [5] relates to Trypanosoma brucei. Briefly: DNDI: Inhibition of Human African Trypanosomiasis, SBRI 427, in vitro. In kind it is functional, organism-based.
The target in data set [6] is T1, MDR1 (ABCB1). The data set can be described thus: DNDI: Apparent permeability from apical to basolateral side of the MDCK cell transfected with human MDR1after 60 mins at a concentration of 3uM. Particulars: dog, MDCK-MDR1. Format: ADME, cell-based, Canis lupus familiaris.
The nature of data set [7]: DNDI: half-life in mouse S9 microsomes at a concentration of 1uM. In kind it is ADME, subcellular, Liver, S9 fraction.
Data set [8] can be described thus: DNDI: Lipophilicity measured in Chromatographic hydrophobicity index (CHI) assay, pH 7.4. Format: physicochemical. To be noted: buffer.
Data set [9] has as its system Trypanosoma brucei. The data set can be described thus: DNDI: Inhibition of Human African Trypanosomiasis, Cross 22, in vitro. Format: functional, organism-based.
The conditions of data set [10]: mouse, microsomes, 1 µM.
Description: (§2) DNDI: in vitro intrinsic clearance in mouse liver microsomes at a concentration of 1uM
A short description of data set [11]: in vitro. Particulars: human, liver microsomes, t (1 / 2). On the technique in general: Liver microsomes are vesicles of endoplasmic reticulum, rich in cytochrome P450 enzymes.
Description: DNDI: half life in human liver microsomes at a concentration of 1uM
The conditions of data set [12]: mouse, microsomes, 1 µM. This is another data set of the same source.
Description: (§3) DNDI: half life in mouse liver microsomes at a concentration of 1uM
The nature of data set [13]: DNDI: Cytotoxicity against L929 mouse fibroblasts, CYTO-SP, 24 hour. In kind it is toxicity, cell-based. To be noted: mouse, L929 mouse fibroblasts.
Data set [14] can be described thus: in vitro. Particulars: human, liver microsomes, CLint in vitro.
Description: DNDI: in vitro intrinsic clearance in human liver microsomes at a concentration of 1uM
A short description of data set [15]: DNDI: Cytotoxicity against L-6 rat myoblasts from skeletal muscle cells. In kind it is toxicity, cell-based, L6. To be noted: L-6 rat skeletal muscle myoblasts.
Data set [16] is described as follows: DNDI: in vitro intrinsic clearance in mouse liver microsomes at a concentration of 10uM. In kind it is ADME, Microsome. Particulars: read-out: CLint in vitro.
A short description of data set [17]: DNDI: half life in mouse liver microsomes at a concentration of 10uM. In kind it is ADME, Microsome.
Data set [18] in a line: DNDI: Solubility in phosphate buffered saline at pH7.4 measured by optical density (turbidimetry) at room temperature (OD-RT). To be noted: pH 7.4. In kind it is physicochemical.
Data set [19] is described as follows: in vitro. To be noted: mouse.
Description: as §2
A further data set relates to Plasmodium falciparum. The data set can be described thus: DNDI: Inhibition of the malaria parasite Plasmodium falciparum, in vitro. Format: functional, organism-based. Particulars: K1.
Data set [20] concerns Trypanosoma brucei rhodesiense. The data set can be described thus: DNDI: Inhibition of Human African Trypanosomiasis (HAT), STIB 900, in vitro. Format: functional, organism-based.
A short description of data set [21]: DNDI: in vitro intrinsic clearance in human liver microsomes at a concentration of 10uM. Format: ADME, Microsome.
The next data set has as its system Leishmania donovani. The data set can be described thus: DNDI: Inhibition of formation of Leishmania donovani (strain MHOM/ET/67/L82) axenic amastigotes, in vitro. Format: functional, organism-based.
Data set [22] can be described thus: DNDI: half life in human liver microsomes at a concentration of 10uM. In kind it is ADME, Microsome.
Data set [23] in a line: in vitro. To be noted: mouse, t (1 / 2).
Description: as §3
The test system of a further data set is Trypanosoma cruzi. The data set can be described thus: DNDI: Inhibition of Chagas Disease parasite Trypanosoma cruzi (Tulahuen LacZ, Clone C4), in vitro. In kind it is functional, organism-based.
Data set [24] has as its system Trypanosoma brucei. Briefly: (§1) DNDI: Mean survival time in days (MSD) of mice after intraperitoneal injection of Human African Trypanosomiasis (HAT), EATRO 110, in vivo at 20 mg/kg/day for 4 days. Format: functional, Mus musculus.
In data set [25] the test system is Trypanosoma brucei. The data set is described as §1. In kind it is functional, Mus musculus. This is another data set of the same source.
Data set [26] can be described thus: DNDI: % of compound remaining in mouse S9 microsomes at a concentration of 1uM after 60 mins. In kind it is ADME, subcellular, Liver, S9 fraction.
The nature of data set [27]: DNDI: % of compound remaining in rat S9 microsomes at a concentration of 1uM. Format: ADME, subcellular, Liver, S9 fraction.
[28] abbreviates: Trypanosoma brucei, SBRI 427, read-out: IC50.

In the case of `CN(C)CCNc1cc(-c2ccccc2)nc2cc(-c3ccc(F)cc3)nn12`, the recovery at 1 h, 3 µM on MDR1 (ABCB1) [1] stood at 70%; at MDR1 (ABCB1) [4], 100%. In data set [2], this compound gave an IC50 at 72 h above 10 µg/mL. Also, in data set [3], the kinetic solubility came out at 25 µM (≈ 9.39 µg/mL). Moreover, the IC50 in the data set on Trypanosoma brucei [5] (setting [28]) was 1.53 µg/mL (≈ 4.08 µM). For the same compound, the Papp A→B at 1 h, 3 µM on MDR1 (ABCB1) [6] was 8.84 ×10⁻⁶ cm/s. For the same compound, the half-life at 1 µM in data set [7] was above 5.83 h. In addition, the chromatographic logD in data set [8] worked out at 5.2.

Regarding `CCCCOc1ccc(-c2nc(CNC3CCCCCC3)co2)cc1`, the IC50 in the data set with Trypanosoma brucei [9] was 0.4 µg/mL (≈ 1.17 µM); with Trypanosoma brucei [5] it was 0.3 µg/mL and 0.39 µg/mL; in the data set on Trypanosoma brucei [5] (setting [28]) it was 0.38 µg/mL (≈ 1.11 µM). For the same compound, the CLint in vitro in data set [10] was 32 µL/min/mg and 11 µL/min/mg. For the same compound, the half-life at 1 µM in the data set “in vitro [11]” came to 0.383 h. In [2], this compound registered a half-maximal inhibitory concentration (IC50) at 72 h below 3.13 µg/mL. Further, the solubility (kinetic) in data set [3] was below 1 µM. For the same compound, in data set [12], the “t (1 / 2)” value is 26 min and 78 min. This compound also showed an IC50 at 24 h in data set [13] of 11.7 µg/mL (≈ 34.2 µM). Besides, in data set [8], the chromatographic logD turned out to be 5.34. This compound also displayed a microsomal CLint at 1 µM in “in vitro [14]” of 38 µL/min/mg.

As for `CCCCCC(C)NCc1coc(-c2ccc(OCCCC)cc2)n1` (stereo not drawn), the IC50 in the data set on Trypanosoma brucei [9] was 0.36 µg/mL (≈ 1.04 µM); in data set [15], 2.66 µg/mL (≈ 7.72 µM); with Trypanosoma brucei [5], 0.29 µg/mL and 0.22 µg/mL; with Trypanosoma brucei [5] (setting [28]), 0.38 µg/mL (≈ 1.1 µM); with Plasmodium falciparum, 0.825 µg/mL (≈ 2.39 µM); in [20] it was 0.278 µg/mL (≈ 0.807 µM). The IC50 with Leishmania donovani is 4.92 µg/mL (≈ 14.3 µM); in the data set with Trypanosoma cruzi, 1.5 µg/mL (≈ 4.35 µM). Further, the figures for the CLint in vitro in [10] and in [21] were 10 µL/min/mg and 28 µL/min/mg, respectively. In addition, the IC50 at 72 h in data set [2] was 1.54 µg/mL (≈ 4.47 µM). Further, the microsomal CLint at 10 µM in [16] amounted to 15 µL/min/mg. Further, the half-life at 10 µM in [17] turned out to be 3.12 h; in data set [22], 1.73 h. For the same compound, in data set [12], the “t (1 / 2)” value is 84 min. Also, the IC50 at 24 h in data set [13] was above 50 µg/mL. The solubility (kinetic) in [18] worked out at 1.6 µM (≈ 0.551 µg/mL). Moreover, in “in vitro [19]” (liver microsomes), the microsomal CLint at 1 µM was found to be 12 µL/min/mg. Besides, in data set [8], the chromatographic logD came to 5.01. This compound also displayed a half-life at 1 µM in “in vitro [23]” (liver microsomes) of 1.17 h.

Turning to `COc1ccc(/C(=N/O)Nc2cccc(C(F)(F)F)c2)cc1`, the MSD in the data set with Trypanosoma brucei [24] and in the data set on Trypanosoma brucei [25] was 5 days in each case. The CLint in vitro in data set [10] was found to be 319 µL/min/mg. The compound further displayed a half-inhibitory concentration (IC50) at 72 h in data set [2] of 8.11 µg/mL (≈ 26.1 µM). For the same compound, the solubility (kinetic) in data set [3] came out at 25 µM (≈ 7.76 µg/mL). Further, in data set [26], the fraction remaining at 1 h, 1 µM amounted to 0%. The fraction remaining at 1 µM in [27] is 0%. In addition, the chromatographic logD in [8] was determined as 3.67. The same compound gave a half-life at 1 µM in “in vitro [23]” (liver microsomes) of 0.05 h.

Turning to `COc1ccccc1CNC(CCc1ccccc1)c1nc(Cc2ccccc2)c(N2CCCCC2)o1` (stereo not drawn), the CLint in vitro in data set [10] turned out to be 487 µL/min/mg. The compound further showed an IC50 at 72 h in data set [2] of 8.24 µg/mL (≈ 16.6 µM). The compound also came in with a kinetic solubility in data set [3] of 2 µM (≈ 0.991 µg/mL). In “in vitro [19]” (liver microsomes), this compound registered a microsomal CLint at 1 µM of 471 µL/min/mg. Moreover, the IC50 in the data set on Trypanosoma brucei [5] (setting [28]) was determined as 4.41 µg/mL (≈ 8.9 µM). Besides, in the data set “in vitro [23]” (liver microsomes), the half-life at 1 µM is 0.0333 h.

Take `CCCCCC(C)NCc1coc(-c2ccc(CCCC)cc2)n1` (stereo not drawn): the IC50 was 0.3 µg/mL (≈ 0.913 µM) in the data set on Trypanosoma brucei [9]; 2.31 µg/mL (≈ 7.03 µM) in data set [15]; 0.647 µg/mL (≈ 1.97 µM) in the data set on Plasmodium falciparum; 0.186 µg/mL (≈ 0.566 µM) in data set [20]; 5.25 µg/mL (≈ 16 µM) in the data set on Leishmania donovani; 2.8 µg/mL (≈ 8.52 µM) with Trypanosoma cruzi. Moreover, the MSD with Trypanosoma brucei [24] came out at 3.4 days. In addition, the CLint in vitro in data set [10] was 11 µL/min/mg; in data set [21], 30 µL/min/mg. Besides, the IC50 at 72 h in data set [2] was found to be 1.48 µg/mL (≈ 4.51 µM). Moreover, the microsomal CLint at 10 µM in data set [16] worked out at 16 µL/min/mg. The half-life at 10 µM in data set [17] was found to be 2.98 h; in [22], 1.62 h. Moreover, the “t (1 / 2)” value in data set [12] amounted to 81 min. In [13], this compound registered an IC50 at 24 h above 50 µg/mL. Besides, in data set [18], the kinetic solubility is 1.6 µM (≈ 0.526 µg/mL). The microsomal CLint at 1 µM in the data set “in vitro [19]” (microsomes) worked out at 12 µL/min/mg. Also, in data set [8], the chromatographic logD turned out to be 5.51. In the data set “in vitro [23]” (microsomes), this compound returned a half-life at 1 µM of 1.22 h.

Values taken from ChEMBL document CHEMBL1857833, “Screening and optimization of specific chemical series against human African Trypanosomiasis (HAT)”.
